In the supplement of paper PMC11061612:

How the values were obtained:
Test in all cases: Bliss excess, mean over the matrix (fraction); higher = more synergy
D-392MG (Glioblastoma) = tested on: D-392MG (Glioblastoma)
Summary of the method: (§1)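 Cell lines in DMEM/F12 or RPMI with 10% FBS were plated in 1536-well plates, held 24 hours at 37°C, 5% CO2, then given two-drug dose matrices for 72 hours (DMSO typically 0.2%). Viability was read by CellTiter-Glo 2.0 luminescence and scaled as inhibition from 0 (vehicle wells) to 1 (blank wells). Combination Emax is the second-highest inhibition in the matrix; Bliss excess is observed combination effect minus expected EA + EB − EA·EB, EA and EB being single-agent effects.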

H4 (Low Grade Glioma) = tested on: H4 (Low Grade Glioma)
Summary of the method: as §1

CS1 (Chondrosarcoma) = tested on: CS1 (Chondrosarcoma)
Summary of the method: as §1

Saos-2 (Osteosarcoma) = tested on: Saos-2 (Osteosarcoma)
Summary of the method: as §1

[1] = tested on: HCC-827 (Lung Adenocarcinoma)
Summary of the method: as §1

[2] = tested on: SNG-M (Endometrial Carcinoma)
Summary of the method: as §1

HuO9 (Osteosarcoma) = tested on: HuO9 (Osteosarcoma)
Summary of the method: as §1

[3] = tested on: P31-FUJ (Acute Myeloid Leukemia)
Summary of the method: as §1

[4] = tested on: SK-LMS-1 (Other Solid Carcinomas)
Summary of the method: as §1

[5] = tested on: HLE (Hepatocellular Carcinoma)
Summary of the method: as §1

MCF7 (Breast Carcinoma) = tested on: MCF7 (Breast Carcinoma)
Summary of the method: as §1

[6] = tested on: MES-SA (Other Solid Carcinomas)
Summary of the method: as §1

[7] = tested on: D-283MED (Other Solid Carcinomas)
Summary of the method: as §1

[8] = tested on: SW948 (Colorectal Carcinoma)
Summary of the method: as §1

[9] = tested on: SKN-3 (Head and Neck Carcinoma)
Summary of the method: as §1

[10] = tested on: TYK-nu (Ovarian Carcinoma)
Summary of the method: as §1

MSTO-211H (Mesothelioma) = tested on: MSTO-211H (Mesothelioma)
Summary of the method: as §1

HCC38 (Breast Carcinoma) = tested on: HCC38 (Breast Carcinoma)
Summary of the method: as §1

[11] = tested on: HCC1143 (Breast Carcinoma)
Summary of the method: as §1

[12] = tested on: SW48 (Colorectal Carcinoma)
Summary of the method: as §1

SMILES	Bliss excess (D-392MG (Glioblastoma))	Bliss excess (H4 (Low Grade Glioma))	Bliss excess (CS1 (Chondrosarcoma))	Bliss excess (Saos-2 (Osteosarcoma))	Bliss excess [1]	Bliss excess [2]	Bliss excess (HuO9 (Osteosarcoma))	Bliss excess [3]	Bliss excess [4]	Bliss excess [5]	Bliss excess (MCF7 (Breast Carcinoma))	Bliss excess [6]	Bliss excess [7]	Bliss excess [8]	Bliss excess [9]	Bliss excess [10]	Bliss excess (MSTO-211H (Mesothelioma))	Bliss excess (HCC38 (Breast Carcinoma))	Bliss excess [11]	Bliss excess [12]
CN(C)CCCOc1ccc(-c2ccc3ncc4c(c3c2)n(C2CCOCC2)c(=O)n4C)cn1 [AZD0156] + O=C(c1cc(Cc2n[nH]c(=O)c3ccccc23)ccc1F)N1CCN(C(=O)C2CC2)CC1 [Olaparib] (first compound max 3 µM, partner max 3 µM)	-0.0585	0.179	0.0148	0.0334	-0.0328	-0.0267	0.0888	0.0759	0.0373	-0.0129	0.0509	0.142	0.115	-0.0231	-0.0165	0.0468	-0.0685	0.0454	-0.0194	–
CN(CCO)CC[C@H](CSc1ccccc1)Nc1ccc(S(=O)(=O)NC(=O)c2ccc(N3CCC([C@@H](O)c4ccccc4-c4ccc(Cl)cc4)CC3)cc2)cc1S(=O)(=O)C(F)(F)F [AZD4320] + C1CN(CCC1(C(=O)N[C@@H](CCO)C2=CC=C(C=C2)Cl)N)C3=NC=NC4=C3C=CN4 [Capivasertib] (first compound max 1 µM, 7x7, partner max 3 µM)	-0.0649	-0.0397	-0.022	0.0035	-0.0644	-0.054	0.0355	0.0452	-0.0225	-0.126	-0.0383	-0.0088	0.0139	-0.0497	-0.0375	-0.038	-0.0162	0.0057	-0.0314	0.0148
CN(CCO)CC[C@H](CSc1ccccc1)Nc1ccc(S(=O)(=O)NC(=O)c2ccc(N3CCC([C@@H](O)c4ccccc4-c4ccc(Cl)cc4)CC3)cc2)cc1S(=O)(=O)C(F)(F)F [AZD4320] + C=CCn1c(=O)c2cnc(Nc3ccc(N4CCN(C)CC4)cc3)nc2n1-c1cccc(C(C)(C)O)n1 [AZD1775] (first compound max 1 µM, partner max 1 µM)	0.0474	0.0551	-0.0017	0.0348	-0.0164	0.104	0.0484	0.113	0.0447	0.0906	-0.0008	-0.0017	-0.0122	0.0744	-0.0056	-0.0845	0.0585	0.0723	-0.0111	0.038
CN(CCO)CC[C@H](CSc1ccccc1)Nc1ccc(S(=O)(=O)NC(=O)c2ccc(N3CCC([C@@H](O)c4ccccc4-c4ccc(Cl)cc4)CC3)cc2)cc1S(=O)(=O)C(F)(F)F [AZD4320] + CCN(CCO)CCCOc1ccc2c(Nc3cc(CC(=O)Nc4cccc(F)c4)[nH]n3)ncnc2c1 [AZD2811] (first compound max 1 µM, 7x7, partner max 1 µM)	0.114	0.0036	0.0355	0.0831	-0.0596	0.0407	0.0376	-0.0531	0.0619	0.0338	0.0189	0.0657	0.0522	-0.0196	-0.0333	-0.0086	0.0471	0.044	-0.0091	-0.0226
CN(CCO)CC[C@H](CSc1ccccc1)Nc1ccc(S(=O)(=O)NC(=O)c2ccc(N3CCC([C@@H](O)c4ccccc4-c4ccc(Cl)cc4)CC3)cc2)cc1S(=O)(=O)C(F)(F)F [AZD4320] + CN(C)CCCOc1ccc(-c2ccc3ncc4c(c3c2)n(C2CCOCC2)c(=O)n4C)cn1 [AZD0156] (first compound max 1 µM, 7x7, partner max 1 µM)	-0.044	-0.0334	-0.0477	-0.0323	-0.0351	-0.0467	0.0143	0.0814	-0.0477	-0.0209	-0.051	-0.0315	-0.0353	-0.0566	-0.0296	-0.1	0.0078	-0.0504	0.0124	-0.0545
CN(CCO)CC[C@H](CSc1ccccc1)Nc1ccc(S(=O)(=O)NC(=O)c2ccc(N3CCC([C@@H](O)c4ccccc4-c4ccc(Cl)cc4)CC3)cc2)cc1S(=O)(=O)C(F)(F)F [AZD4320] + C[C@@H]1COCCN1C2=NC(=NC(=C2)C3(CC3)[S@](=N)(=O)C)C4=C5C=CNC5=NC=C4 [AZD6738] (first compound max 1 µM, 7x7, partner max 10 µM)	-0.0094	-0.0249	-0.0499	0.0256	0.0192	-0.0426	-0.0242	-0.0083	-0.0432	0.0036	-0.0145	-0.0382	0.0139	-0.0873	-0.0127	-0.0115	0.0002	0.0306	-0.0812	0.0245
CN(CCO)CC[C@H](CSc1ccccc1)Nc1ccc(S(=O)(=O)NC(=O)c2ccc(N3CCC([C@@H](O)c4ccccc4-c4ccc(Cl)cc4)CC3)cc2)cc1S(=O)(=O)C(F)(F)F [AZD4320] + C[C@@H](Nc1cc(F)cc(F)c1)c1cc(C(=O)N(C)C)cc2c(=O)cc(N3CCOCC3)oc12 [AZD8186] (first compound max 1 µM, 7x7, partner max 3 µM)	-0.104	0.0521	-0.0411	-0.0258	-0.0294	0.0018	0.0515	0.019	0.0304	-0.0428	0.0057	0.0139	0.0429	-0.101	0.0112	-0.0224	0.0841	-0.0028	0.0263	-0.0048
CN(CCO)CC[C@H](CSc1ccccc1)Nc1ccc(S(=O)(=O)NC(=O)c2ccc(N3CCC([C@@H](O)c4ccccc4-c4ccc(Cl)cc4)CC3)cc2)cc1S(=O)(=O)C(F)(F)F [AZD4320] + Cc1cc2ncnn2cc1Nc1ncc2c(n1)n(C1CCOCC1)c(=O)n2C [AZD7648] (first compound max 1 µM, 7x7, partner max 10 µM)	-0.0614	-0.0355	-0.02	-0.0389	-0.0339	-0.0007	0.0482	-0.0229	0.001	-0.0295	-0.0357	-0.0399	0.0051	-0.0233	-0.0463	-0.0405	-0.0237	-0.0694	-0.0021	0.0314
CN(CCO)CC[C@H](CSc1ccccc1)Nc1ccc(S(=O)(=O)NC(=O)c2ccc(N3CCC([C@@H](O)c4ccccc4-c4ccc(Cl)cc4)CC3)cc2)cc1S(=O)(=O)C(F)(F)F [AZD4320] + Cn1cnc2c(F)c(Nc3ccc(Br)cc3Cl)c(C(=O)NOCCO)cc21 [Selumetinib] (first compound max 1 µM, 7x7, partner max 3 µM)	-0.0474	-0.0002	-0.0054	-0.0016	-0.0011	0.0038	0.041	0.125	0.0293	-0.0142	0.0377	0.0404	0.0172	-0.0332	0.0268	-0.0839	0.0146	-0.0375	0.0112	-0.0159
COc1nnc2ccc(N3CCC(c4ccc(OCCN5CCN(C)C(=O)[C@H]5C)cc4)CC3)nn12 [AZD5153] + C=CCn1c(=O)c2cnc(Nc3ccc(N4CCN(C)CC4)cc3)nc2n1-c1cccc(C(C)(C)O)n1 [AZD1775] (first compound max 1 µM, partner max 1 µM)	-0.0797	-0.0056	-0.0172	-0.0011	0.0237	0.0898	-0.035	-0.0392	-0.0353	0.0069	-0.0356	-0.0334	-0.034	-0.11	-0.0342	-0.04	-0.121	-0.107	-0.0047	-0.0699
COc1nnc2ccc(N3CCC(c4ccc(OCCN5CCN(C)C(=O)[C@H]5C)cc4)CC3)nn12 [AZD5153] + CC1(C)CCC(CN2CCN(c3ccc(C(=O)NS(=O)(=O)c4ccc(NCC5CCOCC5)c([N+](=O)[O-])c4)c(Oc4cnc5[nH]ccc5c4)c3)CC2)=C(c2ccc(Cl)cc2)C1 [Venetoclax] (first compound max 1 µM, 7x7, partner max 1 µM)	-0.0961	0.033	-0.054	-0.0304	-0.0498	-0.0875	-0.0198	-0.0447	-0.0641	-0.0522	-0.0183	-0.06	-0.0343	-0.0016	-0.0576	-0.0887	-0.111	-0.0324	-0.0247	-0.0081
COc1nnc2ccc(N3CCC(c4ccc(OCCN5CCN(C)C(=O)[C@H]5C)cc4)CC3)nn12 [AZD5153] + CCN(CCO)CCCOc1ccc2c(Nc3cc(CC(=O)Nc4cccc(F)c4)[nH]n3)ncnc2c1 [AZD2811] (first compound max 1 µM, 7x7, partner max 1 µM)	-0.037	-0.0269	-0.0284	-0.0809	-0.0513	-0.0158	-0.0983	-0.0293	0.0012	-0.0177	-0.0721	-0.0028	0.001	-0.102	-0.0436	-0.0658	-0.0182	-0.0398	-0.0474	-0.0821
Cc1c2c(nn1C)CSCc1cc(n(C)n1)CSc1cc(c3ccccc3c1)OCCCc1c(C(=O)O)n(C)c3c-2c(Cl)ccc13 [AZD5991] + C=CCn1c(=O)c2cnc(Nc3ccc(N4CCN(C)CC4)cc3)nc2n1-c1cccc(C(C)(C)O)n1 [AZD1775] (first compound max 1 µM, partner max 1 µM)	0.116	-0.042	-0.0118	–	-0.0243	-0.0456	-0.0292	-0.0127	-0.0388	0.0017	-0.0622	0.0402	-0.0583	-0.13	0.0116	0.0279	0.0284	0.0396	0.0689	-0.0318
